The record followed here is patent US5348953A, “Substituted azetidinones as anti-inflammatory and antidegenerative agents” (Merck & Co., Inc., priority 1992, dated 1994).

The first data set has as its target T1, Human Polymorphonuclear Leukocyte Elastase (Homo sapiens, UniProt P08246).
T1 construct: Crude extract of human polymorphonuclear leukocytes (PMN) containing elastase activity; from tissue; host or cells: human polymorphonuclear leukocytes (crude extract)
T1 sequence (P08246 30-267): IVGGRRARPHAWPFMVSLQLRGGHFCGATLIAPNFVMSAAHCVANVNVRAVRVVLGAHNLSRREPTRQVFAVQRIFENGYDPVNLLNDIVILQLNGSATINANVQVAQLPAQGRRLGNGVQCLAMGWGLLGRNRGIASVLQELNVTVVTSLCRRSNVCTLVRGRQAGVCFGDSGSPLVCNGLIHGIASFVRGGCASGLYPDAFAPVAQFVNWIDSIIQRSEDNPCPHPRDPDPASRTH
In words: Inhibition of human polymorphonuclear leukocyte elastase via hydrolysis of Boc-AAPAN or Boc-AAPVN. Type of data set: biochemical. The note with it: pH 7.5; second order rate constant for inactivation; Formula A, M n-propyl, R2 4-methyl (TABLE 1); read-out: kobs /[I]. As for the experimental part:
Enzyme Assays for the Inhibition of Human Polymorphonuclear Leukocyte
Elastase Via Hydrolysis of
N-t-Boc-alanyl-alanyl-prolylalanine-p-nitroanilide (Boc-AAPAN) or
N-t-Boc-alanyl-prolylvaline-p-nitroanilide (Boc-AAPVN) Reagent:
0.05M TES (N-tris[hydroxymethyl]methyl-2-amino-ethanesulfonic acid) Buffer, pH 7.5.
0.2 mM Boc-AAPAN or Boc-AAPVN.
To prepare substrate, the solid was first dissolved in 10.0 ml DMSO. Buffer at pH 7.5 was then added to a final volume of 100 ml.
Crude extract of human polymorphonuclear leukocytes (PMN) containing elastase activity.
Inhibitors (azetidinones) to be tested dissolved in DMSO just before use.
To 1.0 ml of 0.2 mM Boc-AAPAN in a cuvette, 0.01-0.1 ml of DMSO with or without inhibitor was added. After mixing, a measurement was taken at 410 mμ to detect any spontaneous hydrolysis due to presence of test compound. 0.05 Milliliters of PMN extract was then added and the ΔOD/min at 410 mμ was measured and recorded. Beckman model 35 spectrophotometer was used.
Results in Table I were reported as ID50, effective dosage in micrograms per milliliter (μg/ml) for 50% inhibition of the enzyme activity 2 minutes after zero time.
Results were also expressed as Ki, the micromolar concentration of the inhibitor (μM) giving 50% of the control enzyme activity; or as ^k obs/I which is the second order rate constant in per mole per second for inactivation of the enzyme.
The elastase activity in the crude PMN extract may vary from one preparation to another. A control of each new batch is run, and the volume added in the assay procedure is adjusted according to activity.
Regarding `CCC[C@@H](NC(=O)N1C(=O)C(CC)(CC)[C@@H]1OCC(=O)N(CC)CCN(C)C)c1ccc(C)cc1` [Y=N(Et)CH2 CH2; R5=H; R7=Me; R8=Me, 2-(S)-[2-[[2-(Dimethylamino)ethyl]ethylamino]-2-oxoethoxy]-3,3-diethyl-N-[1-(R)-(4-methylphenyl)butyl]-4-oxo-1-azetidinecarboxamide], the kinact/KI was found to be 120000 M⁻¹ s⁻¹. With `CCC[C@@H](NC(=O)N1C(=O)C(CC)(CC)[C@@H]1OCC(=O)N(C)CCN(C)C)c1ccc(C)cc1` [Y=N(Me)CH2 CH2; R5=H; R7=Me; R8=Me, 2-(S)-[2-[[2-(Dimethylamino)ethyl]methylamino]-2-oxoethoxy]-3,3-diethyl-N-[1-(R)-(4-methylphenyl)butyl]-4-oxo-1-azetidinecarboxamide], the kinact/KI is 114000 M⁻¹ s⁻¹. Take `CCC[C@@H](NC(=O)N1C(=O)C(CC)(CC)[C@@H]1OCC(=O)N(C)CCN(C(C)C)C(C)C)c1ccc(C)cc1` [Y=N(Me)CH2 CH2; R5=H; R7=iPr; R8=iPr, 2-(S)-[2-[[2-(Diisopropylamino)ethyl]methylamino]-2-oxoethoxy]-3,3-diethyl-N-[1-(R)-(4-methylphenyl)butyl]-4-oxo-1-azetidinecarboxamide]: the kinact/KI is 115000 M⁻¹ s⁻¹.

`CCC[C@@H](NC(=O)N1C(=O)C(CC)(CC)[C@@H]1O[C@@H](C)C(=O)N(C)CCN(CC)CC)c1ccc(C)cc1` [Y=N(Me)CH2 CH2; R5=Me; R7=Et; R8=Et, 2-(S)-[2-[[2-(Diethylamino)ethyl]methylamino]-2-oxo-(1-(S)-methyl)ethoxy]-3,3-diethyl-N-[1-(R)-(4-methylphenyl)butyl]-4-oxo-1-azetidinecarboxamide]: the kinact/KI amounted to 1.8e+06 M⁻¹ s⁻¹.

Take `CCC[C@@H](NC(=O)N1C(=O)C(CC)(CC)[C@@H]1O[C@@H](C)C(=O)N(C)CCN(C)C)c1ccc(C)cc1` [Y=N(Me)CH2 CH2; R5=Me; R7=Me; R8=Me, 2-(S)-[2-[[2-(Dimethylamino)ethyl]methylamino]-2-oxo-(1-(S)-methyl)ethoxy]-3,3-diethyl-N-[1-(R)-(4-methylphenyl)butyl]-4-oxo-l-azetidinecarboxamide]: the kinact/KI is 1.65e+06 M⁻¹ s⁻¹. The same measure, in the same setting: under `CCC[C@@H](NC(=O)N1C(=O)C(CC)(CC)[C@@H]1OCC(=O)N(CCC)CCN(CC)CC)c1ccc(C)cc1` [Y=N(Pr)CH2 CH2; R5=H; R7=Et; R8=Et, 2-(S)-[2-[[2-(Diethylamino)ethyl]propylamino]-2-oxoethoxy]-3,3-diethyl-N-[1-(R)-(4-methylphenyl)butyl]-4-oxo-1-azetidinecarboxamide] stands 170000 M⁻¹ s⁻¹; under `CCC[C@@H](NC(=O)N1C(=O)C(CC)(CC)[C@@H]1OCC(=O)N(CCN(CC)CC)C(C)C)c1ccc(C)cc1` [Y=N(iPr)CH2 CH2; R5=H; R7=Et; R8=Et], 175000 M⁻¹ s⁻¹; under `CCC[C@@H](NC(=O)N1C(=O)C(CC)(CC)[C@@H]1OCC(=O)N(CCN(C)C)C(C)C)c1ccc(C)cc1` [Y=N(iPr)CH2 CH2; R5=H; R7=Me; R8=Me], 175000 M⁻¹ s⁻¹. The same measure, in the same setting: under `CCC[C@@H](NC(=O)N1C(=O)C(CC)(CC)[C@@H]1OCC(=O)NCCN1CCOCC1)c1ccc(C)cc1` [Y=NHCH2 CH2; R5=H; R7 R8=CH2 CH2OCH2 CH2, 2-(S)-[2-[[2-(morpholin-1-yl)ethyl]amino]-2-oxoethoxy]-3,3-diethyl-N-[1-(R)-(4-methylphenyl)butyl]-4-oxo-1-azetidinecarboxamide] stands 115000 M⁻¹ s⁻¹; under `CCC[C@@H](NC(=O)N1C(=O)C(CC)(CC)[C@@H]1OCC(=O)NCCN(CC)CC)c1ccc(C)cc1` [Y=NHCH2 CH2; R5=H; R7=Et; R8=Et, 2-(S)-[2-[[2-(Diethylamino)ethyl]amino]-2-oxoethoxy]-3,3-diethyl-N-[1-(R)-(4-methylphenyl)butyl]-4-oxo-1-azetidinecarboxamide], 220000 M⁻¹ s⁻¹; under `CCC[C@@H](NC(=O)N1C(=O)C(CC)(CC)[C@@H]1OCC(=O)NCCN(C(C)C)C(C)C)c1ccc(C)cc1` [Y=NHCH2 CH2; R5=H; R7=iPr; R8=iPr, 2-(S)-[2-[[2-(Diisopropylamino)ethyl]amino]-2-oxoethoxy]-3,3-diethyl-N-[1-(R)-(4-methylphenyl)butyl]-4-oxo-1-azetidinecarboxamide], 105000 M⁻¹ s⁻¹. Still for that read-out and setting: for `CCC[C@@H](NC(=O)N1C(=O)C(CC)(CC)[C@@H]1O[C@@H](C)C(=O)NCCN(CC)CC)c1ccc(C)cc1` [Y=NHCH2 CH2; R5=Me; R7=Et; R8=Et, 2-(S)-[2-[[2-(Diethylamino)ethyl]amino]-2-oxo-(1-(S)-methyl)ethoxy]-3,3-diethyl-N-[1-(R)-(4-methyl-phenyl)butyl]-4-oxo-l-azetidinecarboxamide] the value was 1.35e+06 M⁻¹ s⁻¹; for `CCC[C@@H](NC(=O)N1C(=O)C(CC)(CC)[C@@H]1O[C@@H](C)C(=O)NCCN(C)C)c1ccc(C)cc1` [Y=NHCH2 CH2; R5=Me; R7=Me; R8=Me, 2-(S)-[2-[[2-(Dimethylamino)ethyl]amino]-2-oxo-(1-(S)-methyl)ethoxy]-3,3-diethyl-N-[1-(R)-(4-methylphenyl)butyl]-4-oxo-1-azetidinecarboxamide], 1.04e+06 M⁻¹ s⁻¹. With `CCC[C@@H](NC(=O)N1C(=O)C(CC)(CC)[C@@H]1OCC(=O)N(CC)CC)c1ccc(C)cc1` [Y=co-valent bond; R5=H; R7=Et; R8=Et], the kinact/KI was 315000 M⁻¹ s⁻¹. Same read-out and setting: under `CCC[C@@H](NC(=O)N1C(=O)C(CC)(CC)[C@@H]1OCC(=O)N(C)C)c1ccc(C)cc1` [Y=co-valent bond; R5=H; R7=Me; R8=Me] stands 125000 M⁻¹ s⁻¹.

Staying with this data set, now noted: pH 7.5; second order rate constant; Formula A, M n-propyl, R4 piperazine amide with substituent Z; read-out: kobs /[I].
Turning to `CCC[C@@H](NC(=O)N1C(=O)C(CC)(CC)[C@@H]1OCC(=O)N1CCN(C)CC1)c1ccc(C)cc1` [R2=4-Me; R5=H; Z=--Me, 2-(S)-[2-[2-(4-Methyl)piperazin-1-yl]-2-oxoethoxy]-3,-3-diethyl-N-[1-(R)-(4-methylphenyl)-butyl]4-oxo-1-azetidinecarboxamide], the kinact/KI was 150000 M⁻¹ s⁻¹.

Another data set has as its target T2, HUMAN PROTEINASE 3 (Homo sapiens, UniProt P24158).
T2 sequence (P24158 28-256): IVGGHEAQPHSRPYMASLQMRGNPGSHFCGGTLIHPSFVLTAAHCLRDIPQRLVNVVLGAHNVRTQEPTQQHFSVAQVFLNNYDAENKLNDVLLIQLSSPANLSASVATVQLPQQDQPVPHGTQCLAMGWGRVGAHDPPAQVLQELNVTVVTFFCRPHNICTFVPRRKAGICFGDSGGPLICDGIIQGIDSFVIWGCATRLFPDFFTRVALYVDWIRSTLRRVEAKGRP
In words: Inhibition of PR3 catalyzed hydrolysis of MeO-Succ-AAPV-pNA. It is filed as biochemical. The note with it: 45 mM TES pH 7.5, 450 mM NaCl, 10% DMSO; 0.2 mM substrate (TABLE 2); read-out: SORC (second order rate constant, kobs/I). As for the experimental part: The PR3 catalyzed hydrolysis of MeO-Succ-AAPV-pNA was measured in a spectrophotometer monitoring absorbance at 410 n,m. The enzymatic activity was determined in 45 mM TES at pH 7.5, 450 mM NaCl and 10% DMSO. The data were fit by non-linear regression to equation 1 to obtain the initial rates. The nonlinear progress curves observed with time dependent inhibitors were fit to equation 2 to obtain the first order rate constant Kobs. Results were expressed as kobs/I which is the second order rate constant (SORC) in per mole per second for inactivation of the enzyme.
EQN 2 Y=vs *X+[(vo -vs) (1-e^(-K.sbsp.o^*X))/Ko
Kinetic constants for the inhibition of PR3 catalyzed hydrolysis of 0.2 mM MoO-succ-AAPV-pNA were determined by varying the concentration of inhibitor present in the reaction vessel.
On to `CCC[C@@H](NC(=O)N1C(=O)C(CC)(CC)[C@@H]1OCC(=O)N(CC)CCN(C)CCOC)c1ccc(C)cc1` [2-(S)-[2-[[2-((2-Methoxyethyl)-methylamino)ethyl]ethylamino]-2-oxoethoxy]-3,3-diethyl-N-[1-(R)-(4methylphenyl)butyl]-4-oxo-1-azetidinecarboxamide], for which the kinact/KI is 13700 M⁻¹ s⁻¹. Still for that read-out and setting: for `CCC[C@@H](NC(=O)N1C(=O)C(CC)(CC)[C@@H]1OCC(=O)N1CCN(C)CC1)c1ccc(C)cc1` [R2=4-Me; R5=H; Z=--Me, 2-(S)-[2-[2-(4-Methyl)piperazin-1-yl]-2-oxoethoxy]-3,-3-diethyl-N-[1-(R)-(4-methylphenyl)-butyl]4-oxo-1-azetidinecarboxamide] the value was 14800 M⁻¹ s⁻¹; for `CCC[C@@H](NC(=O)N1C(=O)C(CC)(CC)[C@@H]1OCC(=O)N(CC)CCN(C)C)c1ccc(C)cc1` [Y=N(Et)CH2 CH2; R5=H; R7=Me; R8=Me, 2-(S)-[2-[[2-(Dimethylamino)ethyl]ethylamino]-2-oxoethoxy]-3,3-diethyl-N-[1-(R)-(4-methylphenyl)butyl]-4-oxo-1-azetidinecarboxamide], 7900 M⁻¹ s⁻¹.

Tested on in the next data set: not listed separately
In words: Extended storage of the L-malic acid salt at rt. It is filed as physicochemical.
Settings: not given
From the text: NMR (CDCl3 δ from TMS): 0.9-1.0 (m, 6H), 1.0-1.1 (m, 6H), 1.2-1.4 (m, 2H), 1.6-1.95(2 m's, 6H), 2.30 (s, 3H), 2.6-2.9 (2 m's, 4H), 2.92 and 2.94 (2 s, 3H), 3.2-3.4 (m, 2H), 3.52 (br t, 2H, J=8 Hz), 4.5-4.8 (m, 3H), 5.11 (br s, 1H), 7.04 (2 d's, 1H, J=8Hz), 7.13 (br S, 4H).
The material prepared as described above in Example 20, Step A was hydrogenated as described in Example 19, Step B to afford the L-malic acid salt of 2-(S)-[2-[[2-aminoethyl]-ethylamino]-2-oxoethoxy]-3,3-diethyl-N-[1-(R)-(4- methylphenyl)butyl]-4-oxo-1-azetidinecarboxamide as an oil. […] This process could be evaluated by HPLC analysis.
`CCC[C@@H](NC(=O)N1C(=O)C(CC)(CC)[C@@H]1OCC(=O)N(CC)CCNC)c1ccc(C)cc1` [Example 19, 2-(S)-[2-[[2-Methylaminoethyl]-ethylamino]-2-oxoethoxy]-3,3-diethyl-N-[1-(R)-(4-methylphenyl)butyl]-4-oxo-1-azetidinecarboxamide]: the stability upon storage result is listed as “rearranges to an isomeric equilibrium mixture”.
